Experimental findings from US20220041559A1, “BENZO-AND PYRIDO-PYRAZOLES AS PROTEIN KINASE INHIBITORS” (ROTTAPHARM BIOTECH S.R.L., priority 2019, published 2022) are described below.

pIC50: −log10 of the molar value. Where two headings read alike, the source gives them in different places.

One data set concerns the target T1, FYN (Homo sapiens, UniProt P06241).
T1 construct: purchased CarnaBioscience
In words: Z'-LYTE in vitro kinase assay, FYN kinase inhibition. The class given is biochemical. Particulars: near-Km ATP, 60 minutes at 25° C. As for the experimental part:
Assays to determine the kinase inhibitory activity of compounds were performed using an automatic liquid handling device (Microlab STAR Hamilton) and Z′-LYTE™ Kinase Assay Platform (Invitrogen), a Fluorescence Resonance Energy Transfer (FRET)-based assay platform compatible with high-throughput screening (HTS) applications. The assay employs a fluorescence-based, coupled-enzyme format and utilizes the differential sensitivity of phosphorylated and non-phosphorylated peptides to proteolytic cleavage.
Test compounds were evaluated towards active FYN (CarnaBioscience). The enzyme was incubated in a 384 low-volume microplate with a synthetic peptide-substrate, ATP and different inhibitor concentrations, ranging from 10^−10 M up to 10^−5 M final concentration. Samples representing the 0% inhibition (or total enzymatic activity) were in the presence of compound diluent (1% DMSO final) in Reaction Buffer (50 mM Hepes, 10 mM MgCl2, 1 mM EGTA, 0.01% Brij-35, pH 7.5).
A near-Km ATP concentrations for the kinase and an optimal enzyme concentration that phosphorylates 20-40% of the Z′-LYTE™ Tyr 2 Peptide in a one-hour incubation, were selected. All reagents were diluted in reaction buffer and the kinase reaction was carried out in a total volume of 10 μl, for 60 minutes at 25° C. The 0% Phosphorylation (i.e. no ATP) and 100% Phosphorylation (i.e. synthetically phosphorylated peptide supplied) Assay Controls, included in each plate, allowed to calculate the percent phosphorylation achieved in the specific reaction well. The 0% Inhibition and 0% Phosphorylation (i.e. 100% Inhibition) Controls define the dynamic range in the screen. At the end of incubation, a secondary reaction (the Development Reaction) started by adding 5 μl of Development Reagent, containing a site-specific protease that recognizes and cleaves non-phosphorylated peptides, and was interrupted after 60 minutes with 5 μl/sample of Stop Reagent. Measurement of the Coumarin (Ex. 400 nm, Em. 460 nm) and Fluorescein (Ex. 400 nm, Em. 535 nm) emission signals were performed by a fluorescence plate reader (Envision, PerkinElmer).
Results are expressed as percentage of inhibition and the IC50 values were calculated by non-linear curve fitting using GraphPad™ Prism software.

The next data set concerns the target T2, VEGFR2 (KDR) kinase (Homo sapiens, UniProt P35968).
T2 construct: purchased SignalChem
As to the kind of experiment: ADP-Glo in vitro kinase assay, VEGFR2 kinase inhibition. It counts as biochemical. Particulars: for pIC50: ATP 50 μM, 30 minutes at room temperature; for VEGFR2 kinase inhibition, result in words: Table 19. As for the experimental part:
(§1) The ADP-Glo™ Kinase Assay (Promega), monitoring ADP produced in the kinase reaction, was performed in two steps. In the first one, after the kinase reaction, the ADP-Glo™ Reagent is added to terminate the kinase reaction and deplete the remaining ATP. In the second step, the Kinase Detection Reagent is added to simultaneously convert ADP to ATP (ATPn or newly synthesized ATP) and introduce luciferase and luciferin, allowing the ATPn to be measured (luciferase/luciferin reaction). The amount of light generated correlates with the amount of ATPn (indirectly with the ADP produced in kinase reaction).
(§2) Kinase reaction was performed in 10 μl in a white 384-well plate, inhibitor solutions in DMSO/Kinase buffer (40 mM Tris-Cl, 20 mM MgCl2, 0.1 mg/ml BSA, 50 μM DTT, pH 7.5) and VEGFR2 (KDR) kinase in Kinase buffer (SignalChem, 0.5 ng/μl final concentration in assay) were pre-incubate 15 minutes at room temperature. At the kinase concentration selected, a signal-to negative control ratio >10 was calculated, according to supplier indication. In samples representing the Total enzymatic activity or the negative control (no enzyme), inhibitor solution was replaced by diluents (1 DMSO in kinase buffer, final concentration) or ultra-pure water, respectively.
(§3) The range of inhibitor concentrations was from 10^−11 M up to 3×10^−6 M (final concentration in assay) and each experimental point was performed in duplicate.
(§4) To start the reaction, a substrate/ATP mix (50 μM final concentration, near to ATP Km value) was added to each sample and after 30 minutes incubation at room temperature, ADP-Glo™ Reagent and Kinase Detection Reagent, incubated in sequence according to the respective incubation time and supplier indication, allowed to stop and develop the kinase reaction. The luminescence was measured with a plate-reading luminometer (Envision 2104 Multilabel reader, PerkinElmer). The percentage of inhibition was calculated towards the Total enzymatic activity and the corresponding curves were analyzed by non linear curve fitting (GraphPad software, version 7 for Windows), allowing to calculate the IC50 value±standard error of the value
Background: In ADP-Glo the light output rises with the ADP produced.

The target of another data set is EGFR (Homo sapiens, UniProt P00533). In words: ADP-Glo in vitro kinase assay, EGFR kinase inhibition. It counts as biochemical. Also noted: purchased SignalChem. Particulars: for pIC50: ATP 10 μM, 30 minutes at room temperature; for EGFR kinase inhibition, result in words: text summary of Table 18. As for the experimental part:
as §1
as §2, with “EGFR” for “VEGFR2 (KDR)”, “2.5” for “0.5”, “selected” for “selected,”, “activity (no inhibitor)” for “activity”
as §3
as §4, with “mix (ATP 10” for “mix (50”, “the estimate.” for “the value”

Data set [1] can be described thus: Pharmacokinetics in CD1 mice, iv and po. The class given is in vivo. The note with it: 3 mg/kg; for half-life: read-out: t½* (converted).
The target of another data set is human FynB (Homo sapiens, UniProt P06241). As to the kind of experiment: Inhibition of FynB-induced Tau(Y18)-phosphorylation (cell-based assay, HEK293). The note with it: HEK293 over-expressing FynB and Tau 0N4R; incubation 6 or 24 hours; ELISA. As for the experimental part: HEK293 cells (Human Embryonic Kidney 293) were seeded at 6×10^5 in poly-D-lysine 12 w microplates and grown adherent in medium DMEM/10% FBS at 37° C. with 5% CO2. After 24 h, cells were transfected in order to over-express either constitutively active form of human FynB and Tau protein (isoform 0N4R), through an optimized Lipofectamine® 3000 Transfection protocol (Life Technologies™). A non-transfected sample (negative control) was included in every experiment.
Twenty-four hours from transfection, treatments of cells were performed by adding fresh medium containing diluent (DMSO 0.1% final concentration) or test compounds. The incubation was carried out for 6 or 24 hours at 37° C. with 5% CO2. All experimental conditions were performed in duplicate.
At the end of the incubation, the medium was removed and cellular lysates were obtained by adding M-PER lysis buffer containing a 1× Protease/Phosphatase inhibitors cocktail. Then, lysates were transferred into Eppendorf tubes, sonicated and stored at −80° C.
Protein content was measured by Bradford method. Lysates were analyzed by a customized ELISA assay for Tau phosphorylation (Tyrosine 18 residue-Fyn mediated) and Total amount determination. The net OD values were used to calculate the inhibitory effect of compounds.
(In an ELISA, binding on a coated surface is turned into a signal by an enzyme label.)

Sequence of EGFR (P00533 25-1210): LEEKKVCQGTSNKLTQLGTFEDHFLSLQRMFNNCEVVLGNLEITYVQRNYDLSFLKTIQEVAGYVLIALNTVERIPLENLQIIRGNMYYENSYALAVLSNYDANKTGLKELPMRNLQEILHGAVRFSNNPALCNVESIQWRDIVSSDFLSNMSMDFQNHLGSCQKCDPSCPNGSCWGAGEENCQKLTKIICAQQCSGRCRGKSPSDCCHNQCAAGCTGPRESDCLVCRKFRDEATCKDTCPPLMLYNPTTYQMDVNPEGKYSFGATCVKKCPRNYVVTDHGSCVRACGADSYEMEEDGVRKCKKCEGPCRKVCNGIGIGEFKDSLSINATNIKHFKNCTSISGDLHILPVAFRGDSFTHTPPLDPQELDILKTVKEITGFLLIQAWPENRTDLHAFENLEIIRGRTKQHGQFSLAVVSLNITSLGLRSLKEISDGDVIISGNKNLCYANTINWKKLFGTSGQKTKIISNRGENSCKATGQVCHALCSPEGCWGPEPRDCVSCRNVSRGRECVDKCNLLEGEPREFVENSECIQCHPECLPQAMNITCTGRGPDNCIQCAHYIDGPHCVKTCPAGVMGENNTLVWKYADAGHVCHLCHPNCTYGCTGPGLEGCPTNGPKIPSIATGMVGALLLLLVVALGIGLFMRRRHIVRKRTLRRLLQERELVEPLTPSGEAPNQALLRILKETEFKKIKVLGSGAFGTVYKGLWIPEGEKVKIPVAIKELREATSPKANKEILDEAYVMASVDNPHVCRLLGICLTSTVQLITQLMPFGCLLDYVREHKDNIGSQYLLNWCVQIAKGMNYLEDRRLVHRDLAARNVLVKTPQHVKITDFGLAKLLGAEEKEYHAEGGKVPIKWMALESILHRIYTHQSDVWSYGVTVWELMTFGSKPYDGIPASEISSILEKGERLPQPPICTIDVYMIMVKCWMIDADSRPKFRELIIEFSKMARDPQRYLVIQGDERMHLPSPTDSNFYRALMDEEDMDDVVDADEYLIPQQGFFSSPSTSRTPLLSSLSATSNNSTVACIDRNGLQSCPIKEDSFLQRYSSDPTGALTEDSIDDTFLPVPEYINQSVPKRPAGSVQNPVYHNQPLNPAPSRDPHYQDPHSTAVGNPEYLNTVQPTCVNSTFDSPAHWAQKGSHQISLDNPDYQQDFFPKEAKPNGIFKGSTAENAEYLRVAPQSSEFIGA
T2 sequence (P35968 20-1356): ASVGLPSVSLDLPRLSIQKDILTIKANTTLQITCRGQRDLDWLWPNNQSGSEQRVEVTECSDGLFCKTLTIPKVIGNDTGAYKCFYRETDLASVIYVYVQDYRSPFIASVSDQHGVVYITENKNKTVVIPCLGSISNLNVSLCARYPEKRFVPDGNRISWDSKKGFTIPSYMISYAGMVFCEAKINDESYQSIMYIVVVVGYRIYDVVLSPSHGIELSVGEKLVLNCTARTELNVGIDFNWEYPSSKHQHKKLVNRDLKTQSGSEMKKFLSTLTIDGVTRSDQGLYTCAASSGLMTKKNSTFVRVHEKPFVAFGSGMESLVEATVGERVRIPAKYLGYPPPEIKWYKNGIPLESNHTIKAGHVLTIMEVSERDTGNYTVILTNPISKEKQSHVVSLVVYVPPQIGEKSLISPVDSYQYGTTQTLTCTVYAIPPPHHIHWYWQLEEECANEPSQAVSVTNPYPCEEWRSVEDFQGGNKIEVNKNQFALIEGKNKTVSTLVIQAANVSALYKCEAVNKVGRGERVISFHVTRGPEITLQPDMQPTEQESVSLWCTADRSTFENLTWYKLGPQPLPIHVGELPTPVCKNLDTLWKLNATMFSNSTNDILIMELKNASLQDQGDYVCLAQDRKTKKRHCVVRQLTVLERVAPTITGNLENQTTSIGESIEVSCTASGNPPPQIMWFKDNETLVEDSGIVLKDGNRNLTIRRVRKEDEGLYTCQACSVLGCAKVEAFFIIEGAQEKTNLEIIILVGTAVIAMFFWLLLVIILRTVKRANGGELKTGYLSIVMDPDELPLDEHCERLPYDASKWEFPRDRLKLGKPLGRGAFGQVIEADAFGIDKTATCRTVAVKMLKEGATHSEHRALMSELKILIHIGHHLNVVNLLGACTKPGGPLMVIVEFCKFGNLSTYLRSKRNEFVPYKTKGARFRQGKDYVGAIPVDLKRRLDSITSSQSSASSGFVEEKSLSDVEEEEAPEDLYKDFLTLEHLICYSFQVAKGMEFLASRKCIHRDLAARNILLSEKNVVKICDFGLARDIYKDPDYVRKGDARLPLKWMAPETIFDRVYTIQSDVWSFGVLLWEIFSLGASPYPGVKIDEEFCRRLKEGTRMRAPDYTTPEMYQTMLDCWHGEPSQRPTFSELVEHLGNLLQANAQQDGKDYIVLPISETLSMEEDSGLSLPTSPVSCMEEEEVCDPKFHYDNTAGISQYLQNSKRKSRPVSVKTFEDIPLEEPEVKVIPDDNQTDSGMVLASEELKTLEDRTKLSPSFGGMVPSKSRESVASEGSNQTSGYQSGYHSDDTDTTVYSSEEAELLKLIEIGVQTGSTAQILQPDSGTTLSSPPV
T1 sequence (P06241 whole entry): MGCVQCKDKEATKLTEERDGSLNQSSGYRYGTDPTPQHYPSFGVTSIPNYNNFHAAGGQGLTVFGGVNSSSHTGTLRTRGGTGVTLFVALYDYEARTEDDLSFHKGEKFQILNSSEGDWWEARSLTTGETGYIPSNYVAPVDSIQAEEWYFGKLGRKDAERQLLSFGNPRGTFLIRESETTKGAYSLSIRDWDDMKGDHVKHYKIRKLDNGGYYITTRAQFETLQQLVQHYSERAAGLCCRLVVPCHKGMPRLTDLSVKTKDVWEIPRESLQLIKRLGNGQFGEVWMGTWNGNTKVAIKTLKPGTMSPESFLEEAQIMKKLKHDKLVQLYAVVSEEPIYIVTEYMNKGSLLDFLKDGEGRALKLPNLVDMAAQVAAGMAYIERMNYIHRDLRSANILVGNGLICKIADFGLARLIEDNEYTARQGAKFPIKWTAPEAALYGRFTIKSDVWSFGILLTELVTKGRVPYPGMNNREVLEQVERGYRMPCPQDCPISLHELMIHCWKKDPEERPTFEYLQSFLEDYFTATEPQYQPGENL
Sequence of human FynB (P06241 271-524 limits assumed): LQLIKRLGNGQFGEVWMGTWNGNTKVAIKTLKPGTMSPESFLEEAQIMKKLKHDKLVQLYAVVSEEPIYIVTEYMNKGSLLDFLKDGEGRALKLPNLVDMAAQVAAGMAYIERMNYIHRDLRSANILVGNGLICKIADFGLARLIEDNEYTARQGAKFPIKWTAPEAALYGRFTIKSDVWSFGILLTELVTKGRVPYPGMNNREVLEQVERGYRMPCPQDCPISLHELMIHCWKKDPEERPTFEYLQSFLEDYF

In general, pIC50 refers to −log10 of the IC50, conventionally taken in molar units. As to `CN1CCC(c2ccc(C(=O)Nc3n[nH]c4cc(Nc5c(F)cccc5Cl)ccc34)cc2)CC1` [Compound 1, N-(6-((2-chloro-6-fluorophenyl)amino)-1H-indazol-3-yl)-4-(1-methylpiperidin-4-yl)benzamide], the pIC50 against FYN was 6.98; against VEGFR2 (KDR) kinase, 6.98; on EGFR, 6.99. Also, on EGFR, the “EGFR kinase inhibition, result in words” value is “more active”.

On to `Cc1ccc(Nc2ccc3c(NC(=O)c4ccc(C5CCN(C)CC5)cc4)n[nH]c3c2)c(F)c1` [Compound 8, N-(6-((2-fluoro-4-methylphenyl)amino)-1H-indazol-3-yl)-4-(1-methylpiperidin-4-yl)benzamide], for which the pIC50 on FYN was 7.00; at VEGFR2 (KDR) kinase it was 6.90; against EGFR, at most 6.00.

Turning to `CN1CCC(c2ccc(C(=O)Nc3n[nH]c4cc(Nc5ccccc5Cl)ccc34)cc2)CC1` [Compound 14, N-(6-((2-chlorophenyl)amino)-1H-indazol-3-yl)-4-(1-methylpiperidin-4-yl)benzamide], the results for the pIC50 at FYN, against VEGFR2 (KDR) kinase and on EGFR were 7.09, 7.24 and at most 6.00, respectively.

The AUC(0-inf) is the area under the concentration-time curve extrapolated to infinity. Higher therefore signals high exposure. As usually defined, the AUC(0-t) is exposure summed from dosing to a finite time, without extrapolation to infinity. Read a high AUC(0-t) as high exposure. What is called Cmax is the peak of the concentration-time curve. For orientation: Tmax means the time at which the peak concentration occurs. Broadly, the bioavailability is dose-corrected exposure relative to a reference, in per cent. Read a high bioavailability as much systemic uptake. On FYN, `CN1CCC(c2ccc(C(=O)Nc3n[nH]c4cc(Nc5ccccc5F)ccc34)cc2)CC1` [Compound 17, N-(6-((2-fluorophenyl)amino)-1H-indazol-3-yl)-4-(1-methylpiperidin-4-yl)benzamide] had a pIC50 of 7.06. Moreover, the pIC50 against VEGFR2 (KDR) kinase was 6.65. This molecule also came in with a Tlast in data set [1] (iv) of 24 h. For the same molecule, in data set [1] (mouse, plasma, iv), the total exposure AUC(0-inf) was determined as 1400 ng·h/mL, the AUC(0-t) came out at 1350 ng·h/mL and the half-life is 5.5 h. The clearance in data set [1] (mouse, plasma, iv, read-out: CLp) turned out to be 47.7 mL/min/kg. In data set [1] (mouse, plasma, iv, read-out: Vz), the Vd is 22.8 L/kg. Besides, in data set [1] (mouse, plasma, po), the AUC(0-inf) is 726 ng·h/mL, the AUC(0-t) worked out at 712 ng·h/mL, the Cmax stood at 178 nM and the Tmax is 1 h. In data set [1] (mouse, plasma, po), the bioavailability is 53% and the half-life is 4.5 h. This molecule registered a Tlast in data set [1] (po) of 24 h. The same molecule showed a pIC50 at EGFR of 6.65.

As to `COCCN1CCC(c2ccc(C(=O)Nc3n[nH]c4nc(Nc5ccccc5F)ccc34)cc2)CC1` [Compound 25, N-(6-((2-fluorophenyl)amino)-1H-pyrazolo[3,4-b]pyridin-3-yl)-4-(1-(2-methoxyethyl)piperidin-4-yl)benzamide], the pIC50 on FYN is 6.62; at human FynB it was 5.75.

Regarding `CN1CCC(c2ccc(C(=O)Nc3n[nH]c4nc(Nc5ccccc5)ccc34)cc2)CC1` [Compound 29, 4-(1-methylpiperidin-4-yl)-N-(6-(phenylamino)-1H-pyrazolo[3,4-b]pyridin-3-yl)benzamide], the negative-log IC50 (pIC50) was 7.02 against FYN, 9.00 on VEGFR2 (KDR) kinase and at most 6.00 at EGFR. The “VEGFR2 kinase inhibition, result in words” value (“VEGFR2 kinase inhibition” below) at VEGFR2 (KDR) kinase was “more potent”.

`CN1CCC(c2ccc(C(=O)Nc3n[nH]c4nc(Nc5ccc(C#N)cc5)ccc34)cc2)CC1` [Compound 32, N-(6-((4-cyanophenyl)amino)-1H-pyrazolo[3,4-b]pyridin-3-yl)-4-(1-methylpiperidin-4-yl)benzamide]: the pIC50 is 6.45 on FYN, 8.52 at VEGFR2 (KDR) kinase and at most 6.00 against EGFR. Further, on VEGFR2 (KDR) kinase, the “VEGFR2 kinase inhibition” value was “more potent”.

Turning to `COc1ccc(Nc2ccc3c(NC(=O)c4ccc(C5CCN(C)CC5)cc4)n[nH]c3n2)cc1F` [Compound 33, N-(6-((3-fluoro-4-methoxyphenyl)amino)-1H-pyrazolo[3,4-b]pyridin-3-yl)-4-(1-methylpiperidin-4-yl)benzamide], the pIC50 against FYN was 6.99; against human FynB it was 5.73.

Consider `CN1CCC(Oc2ccc(C(=O)Nc3n[nH]c4cc(Oc5ccccc5F)ccc34)cc2)CC1` [Compound 37, N-(6-(2-fluorophenoxy)-1H-indazol-3-yl)-4((1-methylpiperidin-4-yl)oxy)benzamide], for which the pIC50 was 6.41 on FYN, 6.36 at VEGFR2 (KDR) kinase and at most 6.00 against EGFR.

For `CN1CCC(c2ccc(C(=O)Nc3n[nH]c4cc(Nc5ccccc5F)ccc34)nc2)CC1` [Compound 39, N-(6((2-fluorophenyl)amino)-1H-indazol-3-yl)-5-(1-methylpiperidin-4-yl)picolinamide], the pIC50 is 6.74 at FYN, 6.27 at VEGFR2 (KDR) kinase and at most 6.00 at EGFR.

On FYN, `CN1CCC(Oc2ccc(C(=O)Nc3n[nH]c4nc(Nc5ccccc5F)ccc34)cc2)CC1` [Compound 47, N-(6-((2-fluorophenyl)amino)-1H-pyrazolo[3,4-b]pyridin-3-yl)-4((1-methylpiperidin-4-yl)oxy)benzamide] showed a pIC50 of 6.29. In addition, on VEGFR2 (KDR) kinase, the pIC50 was 7.92 and the “VEGFR2 kinase inhibition” value is “more potent”. Also, at EGFR, the pIC50 is 7.62 and the “EGFR kinase inhibition, result in words” value is listed as “more active”.
